Reference: paper PMC8303187, “Anti-Inflammatory Effects of Compounds from Cudrania tricuspidata in HaCaT Human Keratinocytes” (International Journal of Molecular Sciences, 2021)

Assays:
[1] = system: IκBα degradation in HaCaT cells; test: Degradation of cytoplasmic IκBα in TNF-α + IFN-γ-treated HaCaT cells (Western blotting); assay type: cell-based, human; conditions: HaCaT cells pretreated 3 h, then TNF-α + IFN-γ (20 ng/mL) 10 min; Western blot
Excerpt: (§1) The activation of NF-κB by TNF-α and/or IFN-γ results from high levels of IκB phosphorylation and the degradation of IκB in keratinocytes. NF-κB–mediated inflammation is a significant component of innate immunity and seems to be a final common pathway for the aggravation of the inflammatory response to stimuli in immune diseases of the skin [56]. To determine the potential mechanisms of the inhibition of TNF-α + IFN-γ-induced pro-inflammatory enzyme and the mediator levels by the six compounds from C. tricuspidata, their effects on the phosphorylation and degradation of cytoplasmic IκBα and on p65 translocation to the nucleus were investigated. […] In addition, compounds 13, 4, and 14 inhibited the phosphorylation of IκBα (Figure 5C,D). When HaCaT cells were exposed to TNF-α + IFN-γ, NF-κB p65 translocated from the cytoplasm to the nucleus.
(§2) Figure 5 Effects of the six compounds from C. tricuspidata on the degradation of IκB-α (A,B), the phosphorylation of IκBα (C,D), and the translocation of NF-κB p65 to the nucleus (E,F) in HaCaT cells. Cells were pretreated with the six compounds from C. tricuspidata at the indicated concentrations for 3 h and stimulated with TNF-α + IFN-γ (20 ng/mL) for 10 min. IκBα, p-IκBα, and NF-κB p65 were analyzed using Western blotting, as described in the Materials and Methods section. Representative blots from four independent experiments are presented. The immunoblots were quantified using ImageJ software. The band intensity was normalized to that of actin or anti-proliferating cell nuclear antigen (PCNA). * p < 0.05, ** p < 0.01, *** p < 0.001 compared with TNF-α + IFN-γ only.
(§3) Cells were harvested and pelleted via centrifugation at 200× g for 3 min, washed with PBS, and lysed in 20 mM Tris-HCl buffer (pH 7.4) containing a protease inhibitor mixture (0.1 mM phenylmethanesulfonyl fluoride, 5 mg/mL aprotinin, 5 mg/mL pepstatin A, and 1 mg/mL chymostatin). The protein concentration was determined using a protein assay dye reagent concentrate (#5000006; Bio-Rad Laboratories, Hercules, CA, USA). A total of 30 micrograms of protein from each sample was resolved using 7.5% and 12% sodium dodecyl sulfate-polyacrylamide gel electrophoresis. Thereafter, the proteins were electrophoretically transferred onto Hybond enhanced chemiluminescence (ECL) nitrocellulose membranes (Bio-Rad Laboratories). The membranes were blocked with 5% skimmed milk, and sequentially incubated with the relevant primary antibody and horseradish peroxidase-conjugated secondary antibody, prior to ECL detection (Pierce Biotechnology, Rockford, IL, USA).
(§4) HaCaT cells were homogenized in PER-Mammalian Protein Extraction Buffer (1:20, w:v) (Pierce Biotechnology, Rockford, IL, USA) containing freshly added protease inhibitor cocktail I (EMD Biosciences, San Diego, CA, USA) and 1 mM phenylmethanesulfonyl fluoride. The cytosolic fractions were prepared using centrifugation at 16,000× g for 5 min at 4 °C, while the nuclear and cytoplasmic cell extracts were prepared using NE-PER nuclear and cytoplasmic extraction reagents, respectively (Pierce Biotechnology, Rockford, IL, USA).

[2] = system: IL-6 production in TNF-α + IFN-γ-treated HaCaT cells; test: IL-6 production in TNF-α + IFN-γ-treated HaCaT cells (ELISA); assay type: cell-based, human; conditions: for IL-6 production: HaCaT cells pre-treated 3 h, then TNF-α + IFN-γ 24 h, result in words; for IC50: Homo sapiens, HaCaT cells pre-incubated with compound 3 h, then TNF-α + IFN-γ (20 ng/mL) 24 h, ELISA
Excerpt: The skin consists of two basic layers: the epidermis and dermis. The epidermis is mainly composed of keratinocytes. Pro-inflammatory cytokines are known to play an important role in the immune response in keratinocytes. Previous studies have reported the roles of TNF-α and IFN-γ in inducing NF-κB activation, which upregulates the production of IL-6 and IL-8 [25]. […] Accordingly, the effect of the 16 compounds from C. tricuspidata on IL-6 production in TNF-α + IFN-γ-treated HaCaT cells were determined. Briefly, HaCaT cells were pre-incubated with different concentrations of the 16 compounds for 3 h, and then stimulated with TNF-α + IFN-γ for 24 h.
(§5) The cytokines and chemokines in IL-6, IL-8, CCL17 (TARC), and CCL5 (RANTES) HaCaT cells were detected using an enzyme-linked immunosorbent assay. The levels of these cytokines and chemokines were measured using commercial ELISA kits (BioLegend, San Diego, CA, USA), according to the manufacturer’s instructions.
Figure S2. Effects of the 16 compounds from C. tricuspidata on IL-6 production in TNF-α+IFN-γ-treated HaCaT cells (A, B, and C). Cells were pre-treated with the indicated concentrations of the 16 compounds from C. tricuspidata for 3 h and then stimulated with TNF-α+IFN-γ (20 ng/mL) for 24 h. IL-6 levels were determined as described in the Materials and Methods section. The results are presented as the mean ± standard deviation of three experiments. *p < 0.05, **p < 0.01, and ***p < 0.001 compared with TNF-

[3] = system: NF-κB p65 translocation to the nucleus in HaCaT cells; test: NF-κB p65 translocation to the nucleus in TNF-α + IFN-γ-treated HaCaT cells (Western blotting); assay type: cell-based, human; conditions: HaCaT cells pretreated 3 h, then TNF-α + IFN-γ (20 ng/mL) 10 min; Western blot
Excerpt: as §1, §2, §3, §4

[4] = system: IL-8 production in TNF-α + IFN-γ-treated HaCaT cells; test: IL-8 production in TNF-α + IFN-γ-treated HaCaT cells (ELISA); assay type: cell-based, human; conditions: for IL-8 production: HaCaT cells pre-treated 3 h, then TNF-α + IFN-γ 24 h, result in words; for IC50: Homo sapiens, HaCaT cells pre-incubated with compound 3 h, then TNF-α + IFN-γ (20 ng/mL) 24 h, ELISA
Procedure: Next, the effect of the 16 compounds from C. tricuspidata on IL-8 production in HaCaT cells were determined. Briefly, HaCaT cells were pre-incubated with different concentrations of the 16 compounds for 3 h. Thereafter, the cells were subjected to TNF-α + IFN-γ stimulation for 24 h. […] Compound 2, with its flavanone skeletons, has been studied for its cyclooxygenase and tyrosinase inhibitory effects. In a previous study, compound 2 altered the anti-neuroinflammatory response in microglia. Compound 6, a prenylated flavanone, has been reported to have apoptotic effects on A375.S2 melanoma cells and to lead to the induction of apoptotic cell death in KM12, Caco-2, HT29, HCC2998, HCT116, and SW48 cell lines. […] This is the first report on the biological action of compounds 2, 6, 12, 13, 4, and 14 on the inhibitory effects of skin inflammatory factors in skin HaCaT cells. Therefore, further mechanism studies of these six compounds in HaCaT cells were conducted.
as §5
Figure S3. Effects of the 16 compounds from C. tricuspidata on IL-8 (A, B, and C) production in TNF-α+IFN-γ-treated HaCaT cells. The cells were pre-treated with the indicated concentrations of the C. tricuspidata compounds for 3 h, and then stimulated with TNF-α+IFN-γ (20 ng/mL) for 24 h. […] levels were determined as described in the Materials and Methods section. Data are expressed as the mean ± standard deviation of three experiments. *p < 0.05, **p < 0.01, and ***p < 0.001 compared with TNF- […]
(1 picture or pasted object on this page, not shown here)

HaCaT cells = test: Cell Counting Kit (CCK)-8 cell viability / cytotoxicity assay; conditions: CCK-8 assay, 24 h, concentration values that did not result in cytotoxicity
Procedure: The cytotoxicity of the 16 compounds was evaluated using a Cell Counting Kit (CCK)-8 assay on HaCaT cells.
To determine the viability of HaCaT cells, these were maintained at 2 × 10^4 cells/well, treated with the test compounds in the presence or absence of glutamate (5 mM), and cultured for 24 h. Subsequently, a CCK8 assay (Dojindo Laboratories, Kumamoto, Japan) was performed and the cells were incubated for 1 h. The absorbance was then measured at 450 nm.

[5] = system: IκBα phosphorylation in HaCaT cells; test: Phosphorylation of IκBα in TNF-α + IFN-γ-treated HaCaT cells (Western blotting); assay type: cell-based, human; conditions: HaCaT cells pretreated 3 h, then TNF-α + IFN-γ (20 ng/mL) 10 min; Western blot
Excerpt: as §1, §2
Cells were harvested and pelleted via centrifugation at 200× g for 3 min, washed with PBS, and lysed in 20 mM Tris-HCl buffer (pH 7.4) containing a protease inhibitor mixture (0.1 mM phenylmethanesulfonyl fluoride, 5 mg/mL aprotinin, 5 mg/mL pepstatin A, and 1 mg/mL chymostatin). The protein concentration was determined using a protein assay dye reagent concentrate (#5000006; Bio-Rad Laboratories, Hercules, CA, USA). […]

Row | Compound | degradation of IκBα in the cytoplasm [1] | IL-6 production [2] | IC50 [2] [µM] | NF-κB p65 translocation to the nucleus [3] | IL-8 production [4] | IC50 [4] [µM] | Cytotoxicity (HaCaT cells) [µM] | phosphorylation of IκBα [5]
1 | CC(C)=CCc1c(O)cc2oc(-c3ccc(O)cc3O)c(CC=C(C)C)c(=O)c2c1O [Compound 6, cudraflavone C] | inhibit | significantly decreased | 2.78 ± 0.75 | significantly inhibited | decreased | 2.16 ± 0.5 | >5 | –
2 | C=CC(C)(C)c1c(OC)cc2oc3cc(O)c(O)cc3c(=O)c2c1O [Compound 13, 1,6,7-trihydroxy-2-(1,1-dimethyl-2-propenyl)-3-methoxyxanthone] | inhibit | significantly decreased | 9.69 ± 2.15 | no significant effect | decreased | 3.87 ± 0.96 | >40 | inhibited
3 | C=CC(C)(C)c1c(O)cc(O)c2c(=O)c3cc(O)c(O)cc3oc12 [Compound 14, cudratricusxanthone L] | inhibit | significantly decreased | 9.86 ± 0.92 | significantly inhibited | decreased | 3.7 ± 0.7 | >20 | inhibited
4 | CC(C)=CCc1c(O)cc2c(c1O)C(=O)C[C@@H](c1ccc(O)cc1O)O2 [Compound 4, cudraflavanone B] | inhibit | significantly decreased | > 20 | significantly inhibited | decreased | 9.88 ± 3.22 | >20 | inhibited
